Read-outs that look alike come from different tables or passages of the source.
Tests used:
[1] = Metabolite identification in microsomes; format: in vitro ADME, rat, mouse, dog, human, hamster
Experimental: Metabolite identification studies were conducted at WuXi AppTec, China. DNDI-6148 was incubated at 10 μM in the presence of Beagle dog and Sprague-Dawley rat liver microsomes (1 mg/mL) for 60 min. Following precipitation with a solution of formic acid and acetonitrile, metabolites were identified by LC-UV-MSn (n = 1–2).

[2] = target: CYP2C9 (Homo sapiens, UniProt P11712); assay: CYP inhibition, CYP2C9; format: in vitro ADME; settings: human liver microsomes
Chain of CYP2C9 (P11712 whole entry): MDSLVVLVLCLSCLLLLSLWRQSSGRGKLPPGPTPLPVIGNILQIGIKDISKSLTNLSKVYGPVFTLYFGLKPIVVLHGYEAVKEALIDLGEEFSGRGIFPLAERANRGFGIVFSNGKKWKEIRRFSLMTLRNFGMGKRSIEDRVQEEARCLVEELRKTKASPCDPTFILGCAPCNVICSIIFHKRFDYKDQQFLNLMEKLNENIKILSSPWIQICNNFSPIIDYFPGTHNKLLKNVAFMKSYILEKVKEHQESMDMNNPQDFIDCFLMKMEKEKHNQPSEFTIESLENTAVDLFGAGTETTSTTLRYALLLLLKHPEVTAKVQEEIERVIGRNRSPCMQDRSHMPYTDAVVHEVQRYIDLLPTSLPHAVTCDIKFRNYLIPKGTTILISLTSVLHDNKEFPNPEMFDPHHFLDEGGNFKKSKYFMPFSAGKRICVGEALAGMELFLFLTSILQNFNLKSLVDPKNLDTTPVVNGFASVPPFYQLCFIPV
Experimental: (§1) The study was conducted by WuXi AppTec, Co., China, using the time-dependent (TDI) method. […] Following incubation with substrates (phenacetin for 1A2, diclofenac for 2C9, S-(+) mephenytoin for 2C19, dextromethorphan for 2D6, and midazolam or testosterone for 3A4), reactions were stopped by adding ice-cold acetonitrile, the samples were analyzed for the formation of metabolites by LC-MS/MS, and the percentage of inhibition was determined.

[3] = target: CYP2D6 (Homo sapiens, UniProt P10635); assay: CYP inhibition, CYP2D6; format: in vitro ADME; settings: human liver microsomes
Chain of CYP2D6 (P10635 whole entry): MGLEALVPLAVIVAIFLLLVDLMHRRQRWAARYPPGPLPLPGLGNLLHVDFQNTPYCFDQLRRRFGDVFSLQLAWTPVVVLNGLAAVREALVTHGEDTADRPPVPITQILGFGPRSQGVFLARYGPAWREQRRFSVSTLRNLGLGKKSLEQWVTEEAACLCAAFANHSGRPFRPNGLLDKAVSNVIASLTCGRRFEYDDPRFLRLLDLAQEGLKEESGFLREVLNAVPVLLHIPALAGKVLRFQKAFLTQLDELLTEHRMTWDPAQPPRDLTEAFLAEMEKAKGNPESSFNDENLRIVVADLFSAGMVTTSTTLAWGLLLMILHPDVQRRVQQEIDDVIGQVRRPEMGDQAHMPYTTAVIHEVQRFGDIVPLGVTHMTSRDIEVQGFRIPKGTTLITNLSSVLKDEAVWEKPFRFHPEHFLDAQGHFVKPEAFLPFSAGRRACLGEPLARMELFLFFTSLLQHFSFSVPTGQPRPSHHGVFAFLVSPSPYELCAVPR
Experimental: as §1

[4] = target: T1, hERG potassium channels (Homo sapiens, UniProt Q12809); assay: hERG inhibition, automated patch-clamp; format: cell-based; settings: at 30 μM
T1 construct: expressed in transfected cells; host or cells: Chinese hamster ovary (CHO) cells
T1 sequence (Q12809 whole entry): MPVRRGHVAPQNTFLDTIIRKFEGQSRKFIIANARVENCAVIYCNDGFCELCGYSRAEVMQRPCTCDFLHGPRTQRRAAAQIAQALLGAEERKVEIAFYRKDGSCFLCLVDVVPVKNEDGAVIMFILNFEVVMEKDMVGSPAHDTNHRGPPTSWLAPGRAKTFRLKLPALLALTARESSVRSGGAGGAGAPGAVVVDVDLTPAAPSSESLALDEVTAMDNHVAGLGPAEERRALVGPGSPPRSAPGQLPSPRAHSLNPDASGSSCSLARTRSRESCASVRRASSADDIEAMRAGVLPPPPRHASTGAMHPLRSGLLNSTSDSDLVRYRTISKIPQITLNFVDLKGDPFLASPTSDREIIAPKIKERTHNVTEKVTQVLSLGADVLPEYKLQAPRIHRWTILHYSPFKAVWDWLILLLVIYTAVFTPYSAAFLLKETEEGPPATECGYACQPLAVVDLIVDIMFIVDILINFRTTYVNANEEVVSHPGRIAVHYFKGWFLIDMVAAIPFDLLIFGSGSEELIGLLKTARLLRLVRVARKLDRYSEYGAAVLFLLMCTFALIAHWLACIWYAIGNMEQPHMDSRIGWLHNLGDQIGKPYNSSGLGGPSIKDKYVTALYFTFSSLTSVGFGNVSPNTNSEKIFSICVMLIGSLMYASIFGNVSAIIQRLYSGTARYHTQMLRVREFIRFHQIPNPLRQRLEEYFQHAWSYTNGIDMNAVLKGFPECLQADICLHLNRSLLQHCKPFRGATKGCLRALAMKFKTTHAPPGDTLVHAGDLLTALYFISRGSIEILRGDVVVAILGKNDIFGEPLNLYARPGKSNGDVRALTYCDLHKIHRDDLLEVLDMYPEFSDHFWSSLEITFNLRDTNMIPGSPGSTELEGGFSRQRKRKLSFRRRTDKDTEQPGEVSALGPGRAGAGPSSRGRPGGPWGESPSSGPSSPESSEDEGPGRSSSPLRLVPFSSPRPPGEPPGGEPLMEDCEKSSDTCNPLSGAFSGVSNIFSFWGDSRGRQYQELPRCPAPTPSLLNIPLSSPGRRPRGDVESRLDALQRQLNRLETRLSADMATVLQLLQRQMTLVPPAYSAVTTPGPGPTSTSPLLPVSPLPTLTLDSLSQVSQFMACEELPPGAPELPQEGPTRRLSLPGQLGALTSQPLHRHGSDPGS
Experimental: An automated patch-clamp method (QPatch HTX) was used by WuXi AppTec, China. Chinese hamster ovary cells expressing hERG potassium channels were incubated at room temperature with test compounds (0.12, 0.37, 1.11, 3.33, 10, and 30 μM, in triplicate) or amitriptyline as a positive control.

[5] = Plasma-protein binding, mouse; format: in vitro ADME; settings: Balb/c, pH 7.4
Experimental: (§2) Tests were conducted by WuXi AppTec, Co., China, using the equilibrium dialysis method and a 96-well plate format. The test compound (at 2 μM, in triplicate) in solution in plasma (Balb/c mouse, golden (Syrian) hamster, Sprague-Dawley rat, Beagle dog or human) was dialyzed against 100 mM phosphate-buffered saline (pH 7.4) on a rotating plate incubated for 6 h at 37 °C. Following the precipitation of protein with acetonitrile or acetonitrile/methanol containing both 1% phosphoric acid, the amount of compound present in each compartment was quantified by LC-MS/MS.

[6] = Plasma-protein binding, hamster; format: in vitro ADME; settings: golden (Syrian), pH 7.4
Experimental: as §2

[7] = In vivo pharmacokinetics in dog; design: species or system male Beagle dogs; settings: for MRT inf: read-out: MRT0-inf; for MRT last: read-out: MRT0-last
Experimental: DNDI-6148 was administrated intravenously at 1 mg/kg and orally at 5 mg/kg to male Beagle dogs. The formulation for the i.v. leg was 2% ethanol, 1.0 mol equiv NaOH, dextrose (5% solution) filtered, and adjusted to pH 7, and for the p.o. leg, the formulation was 2% ethanol, 1.0 mol equiv NaOH, and dextrose (5% solution). The K2-EDTA anticoagulant was added to blood samples collected at predose, 0.033 (i.v. only), 0.083 (p.o. only), 0.25, 0.5, 1, 3, 6, 9, and 24 h, and were stabilized with phosphoric acid (1% final) before analysis by LC-MS/MS. PK parameters were calculated using WinNonlin software (version 6.3).

[8] = tested on: wild-type T. brucei trypanosomes; assay: Drug sensitivity, wild-type T. brucei; format: cell-based; settings: Trypanosoma brucei
Experimental: The clonal L. donovani cell line LdBOB (derived from MHOM/SD/62/1S-CL2D) was grown as promastigotes at 28 °C, as described previously. Bloodstream form T. brucei MiTat 1.2 clone 221a and its derived subline, 2T1, were cultured at 37 °C in the presence of 5% CO2 in HMI9-T medium, as described previously. T. brucei cell lines overexpressing CPSF3 and overexpressing a mutated version of CPSF3 (Asn232His) were generated as part of a previous study and cultured as described.[19]
(§3) Drug sensitivity assays with wild-type and transgenic T. brucei and L. donovani cell lines were carried out as previously described.[31],[32]

[9] = tested on: L. donovani clones, CPSF3 Asn219His/Glu229Val; assay: Drug sensitivity, L. donovani CRISPR-Cas9 edited CPSF3 Asn219His/Glu229Val; format: cell-based
Experimental: A cell line constitutively expressing Cas9 and T7 RNA polymerase was generated by transfecting 4 × 10^7 promastigotes with the pTB007 vector (10 μg), as previously described.[29] Expression of Cas9 in selected clones was confirmed by western blotting (Figure S1). In addition, the CRISPR-Cas9 system in these parasites was confirmed as functional following the successful tagging of the flagellar protein PF16 with mNeonGreen, as previously described.[29]
To introduce specific mutations into CPSF3, 3 × 10^6 promastigotes expressing Cas9 and T7 RNA were resuspended in a 110 μL of Human T-Cell Nucleofector reagent and transfected with 18 μL of sgRNA and 4 μg of template using the Amaxa Nucleofector electroporator (program V-033). sgRNA was produced according to the previously established protocol from the Gluenz lab,[30] in which the scaffold primer G00 and a gene-specific forward primer (FwsgRNA) were used (Table S1). Twenty-four hours following transfection, DNDI-6148 was added to cultures at 6 μM. Drug-selected populations were cloned by limiting dilution, EC50s were determined, and genomic DNA was extracted. The CPSF3 gene from CRISPR-edited parasites was amplified by PCR, and the resulting products were sequenced.
as §3

[10] = male, Beagle, plasma, IV 1.0 mg/kg, mean
[11] = male, Beagle, plasma, PO 5 mg/kg, mean
[12] = male, Beagle, plasma, iv, i.v. 1 mg/kg

Cc1c(C(=O)Nc2ccc3c(c2)B(O)OC3)nnn1-c1ccccn1 [Compound 23, N-(1-Hydroxy-1,3-dihydrobenzo[c][1,2]oxaborol-6-yl)-5-methyl-1-(pyridin-2-yl)-1H-1,2,3-triazole-4-carboxamide]
reactive metabolite formation ([1]; microsomes, any species): no evidence of reactive metabolite formation
metabolism in rat microsomes ([1]; rat microsomes): No metabolism was detected
IC50 [2]: > 50 µM
IC50 [3]: > 50 µM
hERG inhibition [4]: < 20%
fraction unbound at 6 h, 2 µM [5]: 0.07
fraction unbound at 6 h, 2 µM [6]: 0.12
AUC0-inf/AUC0-last ([7]; IV 1.0 mg/kg, mean): 102%
Tlast ([7]; IV 1.0 mg/kg, mean): 9.00 h
AUC0-inf/AUC0-last ([7]; PO 5 mg/kg, mean): 103%
Tlast ([7]; PO 5 mg/kg, mean): 9.00 h
concentration at 0.033 h ([7]; male, Beagle, plasma, IV 1.0 mg/kg, 0.033 h, mean): 1560 ng/mL
concentration at 5 min [7, 10]: 1120 ng/mL
concentration at 0.25 h [7, 10]: 644 ng/mL
concentration at 0.5 h [7, 10]: 534 ng/mL
concentration at 1 h [7, 10]: 373 ng/mL
concentration at 3 h [7, 10]: 97.7 ng/mL
concentration at 6 h [7, 10]: 23 ng/mL
concentration at 9 h [7, 10]: 8.8 ng/mL
concentration at 24 h [7, 10]: 0.9 ng/mL
AUC(0-inf) [7, 10]: 1270 ng·h/mL
AUC(0-t) [7, 10]: 1240 ng·h/mL
C0 [7, 10]: 1930 ng/mL
half-life [7, 10]: 1.49 h
MRT inf [7, 10]: 1.66 h
MRT last [7, 10]: 1.51 h
Vd ([7]; male, Beagle, plasma, IV 1.0 mg/kg, mean, read-out: Vdss): 1.31 L/kg
concentration at 5 min [7, 11]: 266 ng/mL
concentration at 0.25 h [7, 11]: 1130 ng/mL
concentration at 0.5 h [7, 11]: 881 ng/mL
concentration at 1 h [7, 11]: 814 ng/mL
concentration at 3 h [7, 11]: 357 ng/mL
concentration at 6 h [7, 11]: 54.8 ng/mL
concentration at 9 h [7, 11]: 25.5 ng/mL
concentration at 24 h [7, 11]: 0.9 ng/mL
AUC(0-inf) [7, 11]: 2530 ng·h/mL
AUC(0-t) [7, 11]: 2470 ng·h/mL
Cmax [7, 11]: 1220 ng/mL
Tmax [7, 11]: 0.63 h
half-life [7, 11]: 1.46 h
MRT inf [7, 11]: 2.42 h
MRT last [7, 11]: 2.19 h
Vd at 24 h [7, 12]: 1.3 L/kg
clearance [7, 12]: 13.7 mL/min/kg
half-life at 24 h [7, 12]: 1.5 h
bioavailability at 24 h ([7]; male, Beagle, plasma, po, p.o. 5 mg/kg): 39%
EC50 ([8]; Figure 2A): 0.047 ± 0.0009 µM
EC50 ([8]; Figure 2B): 0.067 ± 0.001 µM
Fold change (relative to WT) ([9]; CRISPR-Cas9 edited Asn219His/Glu229Val, listed as DNDI-6148): > 5 fold
EC50 ([9]; Leishmania donovani): 2830 ± 139 µM

— paper PMC8591608, “DNDI-6148: A Novel Benzoxaborole Preclinical Candidate for the Treatment of Visceral Leishmaniasis” (Journal of Medicinal Chemistry, 2021)
